Experimental data published in patent US20240294531A1, “COVALENT HETEROCYCLES AND USES THEREOF” (Kumquat Biosciences Inc., priority 2022, published 2024).

Legend:
[1] = target: BTK wildtype protein (Homo sapiens (Human), UniProt Q06187); experiment: BTK wildtype HTRF displacement assay; type: binding; settings: 1-hour incubation; read-out: BTK (wt) IC50
How it was run: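 Full-length N-terminal GST-tagged BTK incubated 1 h at room temperature with compound (6 doses, four-fold dilutions from 5 μM top) plus kinase tracer 239 and anti-GST-Tb antibody. Tracer displacement read as TR-FRET 665/620 ratio, background-subtracted using no-protein control. IC50 from four-parameter fit constrained 0–100% inhibition.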

[2] = target: BTK C481S protein (Homo sapiens (Human), UniProt Q06187, C481S); experiment: BTK C481S HTRF displacement assay; type: binding; settings: 1-hour incubation
How it was run: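 N-terminal GST-tagged BTK C481S (2-659) incubated 1 hour at room temperature with compound (6 doses, four-fold from 5 μM), 50 nM kinase tracer 239 and anti-GST-Tb antibody. TR-FRET 665/620 ratio, background-subtracted; IC50 from constrained four-parameter fit. KI=IC50/(1+[Tracer]/Kd), tracer Kd 54 nM.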

Chain of BTK wildtype protein (Q06187 2-659): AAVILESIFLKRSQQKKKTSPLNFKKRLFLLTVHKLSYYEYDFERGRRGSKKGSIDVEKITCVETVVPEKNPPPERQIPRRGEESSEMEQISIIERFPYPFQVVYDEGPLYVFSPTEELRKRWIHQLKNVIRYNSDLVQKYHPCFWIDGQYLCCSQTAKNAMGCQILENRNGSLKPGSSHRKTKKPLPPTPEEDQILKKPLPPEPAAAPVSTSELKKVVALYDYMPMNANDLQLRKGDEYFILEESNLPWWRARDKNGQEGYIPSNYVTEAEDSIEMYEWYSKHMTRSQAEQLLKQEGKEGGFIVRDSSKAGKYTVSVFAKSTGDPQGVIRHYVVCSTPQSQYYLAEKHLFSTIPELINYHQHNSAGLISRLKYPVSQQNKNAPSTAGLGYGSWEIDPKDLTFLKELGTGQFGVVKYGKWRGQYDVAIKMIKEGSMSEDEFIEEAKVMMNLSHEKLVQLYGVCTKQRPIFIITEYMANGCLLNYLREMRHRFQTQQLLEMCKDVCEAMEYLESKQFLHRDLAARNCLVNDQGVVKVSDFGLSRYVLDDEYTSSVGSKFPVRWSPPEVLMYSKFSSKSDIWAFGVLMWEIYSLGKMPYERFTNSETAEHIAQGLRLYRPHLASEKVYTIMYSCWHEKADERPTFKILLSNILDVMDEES
Chain of BTK C481S protein (Q06187 2-659 C481S): as the sequence (Q06187 2-659) above, with C480S counted along it

Row | SMILES | IC50 [1] [nM] | IC50 [2] [nM]
1 | COc1ccc(C)cc1C(=O)NCc1ccc(-c2nn(C3CCCC(N(C)C(=O)n4cncn4)C3)c3ncnc(N)c23)cc1 (stereo not drawn) [Compound 215, N-(3-(4-amino-3-(4-((2-methoxy-5-methylbenzamido)methyl)phenyl)-1H-pyrazolo[3,4-d]pyrimidin-1-yl)cyclohexyl)-N-methyl-1H-1,2,4-triazole-1-carboxamide] | ≤ 1000 | ≤ 1000
2 | NC(=O)c1c(-c2ccc(Oc3ccccc3)cc2)nn2c1NCC1CCN(C(=O)n3cncn3)CC12 (stereo not drawn) [Compound 288, 2-(4-phenoxyphenyl)-8-(1H-1,2,4-triazole-1-carbonyl)-4,5,5a,6,7,8,9,9a-octahydropyrazolo[1,5-a]pyrido [4,3-e]pyrimidine-3-carboxamide] | ≤ 1000 | ≤ 1000
3 | COc1ccc(F)cc1C(=O)NCc1ccc(-c2nn(CC3CCCCC3N(C)C(=O)n3cncn3)c(N)c2C(N)=O)cc1 (stereo not drawn) [Compound 229, N-(2-((5-amino-4-carbamoyl-3-(4-((5-fluoro-2-methoxybenzamido)methyl)phenyl)-1H-pyrazol-1-yl)methyl)cyclohexyl)-N-methyl-1H-1,2,4-triazole-1-carboxamide] | ≤ 1000 | ≤ 1000
4 | Cc1[nH]c2c(C(N)=O)cc(F)c(N3CCCC(N(C)C(=O)n4cncn4)C3)c2c1C (stereo not drawn) [Compound 262, 5-fluoro-2,3-dimethyl-4-(3-(N-methyl-1H-1,2,4-triazole-1-carboxamido)piperidin-1-yl)-1H-indole-7-carboxamide] | ≤ 1000 | ≤ 1000
5 | CN(C(=O)n1cncn1)C1CCCC1C1CCNc2c(C(N)=O)c(-c3ccc(Oc4ccccc4)cc3)nn21 (stereo not drawn) [Compound 235, 7-(2-(N-methyl-1H-1,2,4-triazole-1-carboxamido)cyclopentyl)-2-(4-phenoxyphenyl)-4,5,6,7-tetrahydropyrazolo[1,5-a] pyrimidine-3-carboxamide] | > 1000 | > 1000
6 | COc1ccc(F)cc1C(=O)NCc1ccc(-c2nn(C3(CN(C)C(=O)n4cncn4)CC3)c3ncnc(N)c23)cc1 [Compound 188, N-((1-(4-amino-3-(4-((5-fluoro-2-methoxybenzamido)methyl)phenyl)-1H-pyrazolo[3,4-d]pyrimidin-1-yl)cyclopropyl)methyl)-N-methyl-1H-1,2,4-triazole-1-carboxamide] | ≤ 1000 | > 1000
7 | COc1ccc(F)cc1C(=O)NCc1ccc(-c2nn([C@H]3CC[C@@H](N(C)C(=O)n4cncn4)C3)c3ncnc(N)c23)cc1 [Compound 269, N-((1R,3S)-3-(4-amino-3-(4-((5-fluoro-2-methoxybenzamido)methyl)phenyl)-1H-pyrazolo [3,4-d]pyrimidin-1-yl)cyclopentyl)-N-methyl-1H-1,2,4-triazole-1-carboxamide] | ≤ 1000 | ≤ 1000
8 | COc1ccc(F)cc1C(=O)NCc1ccc(-c2nn(C(CCN(C)C(=O)n3cncn3)Cc3ccccc3)c3ncnc(N)c23)cc1 (stereo not drawn) [Compound 195, N-(3-(4-amino-3-(4-((5-fluoro-2-methoxybenzamido)methyl)phenyl)-1H-pyrazolo[3,4-d]pyrimidin-1-yl)-4-phenylbutyl)-N-methyl-1H-1,2,4-triazole-1-carboxamide] | > 1000 | > 1000
9 | COc1ccc(F)cc1C(=O)NCc1ccc(-c2nn([C@H]3CCCC[C@H](N(C)C(=O)n4cncn4)C3)c(N)c2C(N)=O)cc1 [Compound 232, N-((1S,3S)-3-(5-amino-4-carbamoyl-3-(4-((5-fluoro-2-methoxybenzamido)methyl)phenyl)-1H-pyrazol-1-yl)cycloheptyl)-N-methyl-1H-1,2,4-triazole-1-carboxamide] | ≤ 1000 | ≤ 1000
10 | COc1ccc(F)cc1C(=O)NCc1ccc(-c2nn(C[C@@H]3CCN3C(=O)n3cncn3)c3ncnc(N)c23)cc1 [Compound 103, (S)-N-(4-(1-((1-(1H-1,2,4-triazole-1-carbonyl)azetidin-2-yl)methyl)-4-amino-1H-pyrazolo[3,4-d]pyrimidin-3-yl)benzyl)-5-fluoro-2-methoxybenzamide] | ≤ 1000 | ≤ 1000
11 | COc1ccc(F)cc1C(=O)NCc1ccc(-c2nn([C@@H]3CCC[C@@H](N(C)C(=O)n4cncn4)C3)c(N)c2C(N)=O)cc1 (relative stereo) [Compound 194, N-((1R,3R)-3-(5-amino-4-carbamoyl-3-(4-((5-fluoro-2-methoxybenzamido)methyl)phenyl)-1H-pyrazol-1-yl)cyclohexyl)-N-methyl-1H-1,2,4-triazole-1-carboxamide] | ≤ 1000 | ≤ 1000
12 | NC(=O)c1c(-c2ccc(Oc3ccccc3)cc2)nn2c1NCCC2CN(C(=O)n1cncn1)C1CC1 (stereo not drawn) [Compound 240, 7-((N-cyclopropyl-1H-1,2,4-triazole-1-carboxamido)methyl)-2-(4-phenoxyphenyl)-4,5,6,7-tetrahydro-pyrazolo[1,5-a]pyrimidine-3-carboxamide] | > 1000 | > 1000
13 | CN(C(=O)n1cncn1)C1CCC2CNc3c(C(N)=O)c(-c4ccc(Oc5ccccc5)cc4)nn3C2C1 (stereo not drawn) [Compound 234, 8-(N-methyl-1H-1,2,4-triazole-1-carboxamido)-2-(4-phenoxyphenyl)-4,5,5a,6,7,8,9,9a-octahydro-pyrazolo[1,5-a]quinazoline-3-carboxamide] | > 1000 | > 1000
14 | CN(C(=O)n1cncn1)C1CCCCC1n1nc(-c2ccc(Oc3ccccc3)cc2)c2c(N)ncnc21 (stereo not drawn) [Compound 263, N-(2-(4-amino-3-(4-phenoxyphenyl)-1H-pyrazolo[3,4-d]pyrimidin-1-yl)cyclohexyl)-N-methyl-1H-1,2,4-triazole-1-carboxamide] | ≤ 1000 | ≤ 1000
15 | COc1ccc(F)cc1C(=O)NCc1ccc(-c2nn(CC3CCC(N(C)C(=O)n4cncn4)C3)c3ncnc(N)c23)cc1 (stereo not drawn) [Compound 311, N-(3-((4-amino-3-(4-((5-fluoro-2-methoxybenzamido)methyl)phenyl)-1H-pyrazolo[3,4-d]pyrimidin-1-yl)methyl)cyclopentyl)-N-methyl-1H-1,2,4-triazole-1-carboxamide] | ≤ 1000 | ≤ 1000
16 | NC(=O)c1nn2c(c1-c1ccc(Oc3ccccc3)cc1)NCCC2C1CCCCN1C(=O)n1cncn1 (stereo not drawn) [Compound 203, 7-(1-(1H-1,2,4-triazole-1-carbonyl)piperidin-2-yl)-3-(4-phenoxy-phenyl)-4,5,6,7-tetrahydro-pyrazolo[1,5-a]pyrimidine-2-carboxamide] | > 1000 | > 1000
17 | CN(C(=O)n1cncn1)C1CCC2C(CNc3c(C(N)=O)c(-c4ccc(Oc5ccccc5)cc4)nn32)C1 (stereo not drawn) [Compound 131, 7-(N-methyl-1H-1,2,4-triazole-1-carboxamido)-2-(4-phenoxyphenyl)-4,5,5a,6,7,8,9,9a-octahydropyrazolo [1,5-a]quinazoline-3-carboxamide] | > 1000 | > 1000
18 | NC(=O)c1c(-c2ccc(Oc3ccccc3)cc2)nn2c1NCCC2C1CN(C(=O)n2cncn2)C1 (stereo not drawn) [Compound 220, 7-(1-(1H-1,2,4-triazole-1-carbonyl)azetidin-3-yl)-2-(4-phenoxyphenyl)-4,5,6,7-tetrahydropyrazolo[1,5-a] pyrimidine-3-carboxamide] | ≤ 1000 | ≤ 1000
19 | CC(C1CCNc2c(C(N)=O)c(-c3ccc(Oc4ccccc4)cc3)nn21)N(C)C(=O)n1cncn1 (stereo not drawn) [Compound 205, 7-(1-(N-methyl-1H-1,2,4-triazole-1-carboxamido)ethyl)-2-(4-phenoxy-phenyl)-4,5,6,7-tetrahydro-pyrazolo[1,5-a]pyrimidine-3-carboxamide] | ≤ 1000 | ≤ 1000
20 | CN(C(=O)n1cncn1)C1CCCN(c2ncnc3[nH]ccc23)C1 (stereo not drawn) [Compound 192, N-(1-(7H-pyrrolo[2,3-d]pyrimidin-4-yl)piperidin-3-yl)-N-methyl-1H-1,2,4-triazole-1-carboxamide] | > 1000 | > 1000
21 | COc1ccc(F)cc1C(=O)NCc1ccc(-c2nn(C(CC3CCCC3)CN(C)C(=O)n3cncn3)c3ncnc(N)c23)cc1 (stereo not drawn) [Compound 206, N-(2-(4-amino-3-(4-((5-fluoro-2-methoxybenzamido)methyl)phenyl)-1H-pyrazolo[3,4-d]pyrimidin-1-yl)-3-cyclopentylpropyl)-N-methyl-1H-1,2,4-triazole-1-carboxamide] | > 1000 | > 1000
22 | COc1ccc(F)cc1C(=O)NCc1ccc(-c2nn(C[C@@H]3CC[C@H]3N(C)C(=O)n3cncn3)c(N)c2C(N)=O)cc1 [Compound 121, N-((1R,2S)-2-((5-amino-4-carbamoyl-3-(4-((5-fluoro-2-methoxybenzamido)methyl)phenyl)-1H-pyrazol-1-yl)methyl)cyclobutyl)-N-methyl-1H-1,2,4-triazole-1-carboxamide] | ≤ 1000 | ≤ 1000
23 | COc1ccc(F)cc1C(=O)NCc1ccc(-c2nn(C(CN(C(=O)n3cncn3)C3CC3)C3CC3)c3ncnc(N)c23)cc1 (stereo not drawn) [Compound 231, N-(2-(4-amino-3-(4-((5-fluoro-2-methoxybenzamido)methyl)phenyl)-1H-pyrazolo[3,4-d]pyrimidin-1-yl)-2-cyclopropyl-ethyl)-N-cyclopropyl-1H-1,2,4-triazole-1-carboxamide] | > 1000 | > 1000
24 | COc1ccc(F)cc1C(=O)NCc1ccc(-c2nn(CC3CCN3C(=O)n3cncn3)c(N)c2C(N)=O)cc1 (stereo not drawn) [Compound 145, 1-((1-(1H-1,2,4-triazole-1-carbonyl)azetidin-2-yl)methyl)-5-amino-3-(4-((5-fluoro-2-methoxybenzamido)methyl)phenyl)-1H-pyrazole-4-carboxamide] | ≤ 1000 | ≤ 1000
